Nine molecules from patent publication US20250368649A1, “TETRAHYDROPYRIDOPYRIMIDINE PAN-KRAS INHIBITORS” (Mirati Therapeutics, Inc., priority 2022, published 2025) can be followed below.

As usually defined, the IC50 is the concentration that inhibits the measured activity by half. A low value points to higher potency.

In assay [1] the target is KRas G12V (Homo sapiens, UniProt P01116, G12V). Description: biochemical. The following applies: Binding to KRas (IC50 nM) G12V, TR-FRET displacement, KRas G12V. For orientation: Time-resolved FRET reads energy transfer from a long-lived donor to a nearby acceptor.
Chain of KRas G12V (P01116 1-169 isoform P01116-2 G12V): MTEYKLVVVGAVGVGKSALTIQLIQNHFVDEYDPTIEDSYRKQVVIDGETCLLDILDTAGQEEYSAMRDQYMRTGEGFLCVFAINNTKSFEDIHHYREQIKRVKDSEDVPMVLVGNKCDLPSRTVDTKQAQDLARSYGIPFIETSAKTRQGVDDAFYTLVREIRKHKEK
Assay [2] addresses KRas G12D (Homo sapiens, UniProt P01116, G12D). As to the kind of experiment: biochemical. The following applies: Binding to KRas (IC50 nM) G12D, TR-FRET displacement, KRas G12D.
For assay [3], the system named is MKN1 cells. Description: Inhibition of KRas-mediated phosphorylation of ERK (Cisbio HTRF pERK), MKN1 cells. It is filed as cell-based. The following applies: Homo sapiens, MKN-1, 3 hr compound incubation. In a few lines:
(§1)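 On the first day, plate 6,000 cells into each well in RPMI medium with 10% fetal bovine serum.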

For assay [4], the system named is H727 cells. As to the kind of experiment: Inhibition of KRas-mediated phosphorylation of ERK (Cisbio HTRF pERK), H727 cells. The assay is classed as cell-based. The following applies: Homo sapiens, NCI-H727, 3 h, 3 hr compound incubation.
For assay [5], the system named is ASPC1 cells. As to the kind of experiment: Inhibition of KRas-mediated phosphorylation of ERK (Cisbio HTRF pERK), ASPC1 cells. The assay is classed as cell-based. The following applies: Homo sapiens, ASPC1, 3 h, AsPC-1 cells; 3 hr compound incubation.
Assay [6] has as its system HCT116 cells. As to the kind of experiment: Inhibition of KRas-mediated phosphorylation of ERK (Cisbio HTRF pERK), HCT116 cells. It is filed as cell-based. The following applies: Homo sapiens, HCT-116, 3 h, 3 hr compound incubation.
The subject of assay [7] is PSN1 cells. Description: Inhibition of KRas-mediated phosphorylation of ERK (Cisbio HTRF pERK), PSN1 cells. It is filed as cell-based. The following applies: Homo sapiens, PSN1, 3 h, 3 hr compound incubation. In short, it runs like this: as §1
Assay [8] has as its system H358 cells. Description: Inhibition of KRas-mediated phosphorylation of ERK (Cisbio HTRF pERK), H358 cells. The following applies: Homo sapiens, NCI-H358, 3 h, 3 hr compound incubation. It is filed as cell-based.
The test system of assay [9] is H460 cells. Description: Inhibition of KRas-mediated phosphorylation of ERK (Cisbio HTRF pERK), H460 cells. It is filed as cell-based. The following applies: Homo sapiens, NCI-H460, 3 h, 3 hr compound incubation.
The target in assay [10] is KRas G12R (Homo sapiens, UniProt P01116, G12R). Description: biochemical. The following applies: Binding to KRas (IC50 nM) G12R, TR-FRET displacement, KRas G12R.
Chain of KRas G12R (P01116 1-169 isoform P01116-2 G12R): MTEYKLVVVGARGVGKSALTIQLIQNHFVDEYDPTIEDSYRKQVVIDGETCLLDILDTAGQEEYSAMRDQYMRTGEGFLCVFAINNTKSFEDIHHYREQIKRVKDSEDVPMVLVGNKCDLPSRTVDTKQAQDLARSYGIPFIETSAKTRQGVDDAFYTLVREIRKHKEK
The subject of assay [11] is A549 cells. As to the kind of experiment: Inhibition of KRas-mediated phosphorylation of ERK (Cisbio HTRF pERK), A549 cells. The following applies: Homo sapiens, A549, 3 h, 3 hr compound incubation. It is filed as cell-based.

Chain of KRas G12D (P01116 1-169 isoform P01116-2 G12D): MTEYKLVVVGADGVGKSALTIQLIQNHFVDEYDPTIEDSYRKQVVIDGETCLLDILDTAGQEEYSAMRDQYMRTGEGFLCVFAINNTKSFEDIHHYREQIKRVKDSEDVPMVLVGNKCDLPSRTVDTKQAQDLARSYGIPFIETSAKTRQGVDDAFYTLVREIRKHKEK

Regarding `CCc1c(F)ccc2cc(O)cc(N3CCc4c(nc(OC[C@@]56CCCN5C[C@H](F)C6)nc4N4CCCn5nc(N)nc5C4)C3)c12` [Example 631, 4-(4-(2-amino-6,7-dihydro-5H-[1,2,4]triazolo[1,5-a][1,4]diazepin-8(9H)-yl)-2-(((2R,7aS)-2-fluorotetrahydro-1H-pyrrolizin-7a(5H)-yl)methoxy)-5,8-dihydropyrido[3,4-d]pyrimidin-7(6H)-yl)-5-ethyl-6-fluoronaphthalen-2-ol], the IC50 in [1] is under 2 nM; in assay [2], under 2 nM; in [3], 48.3 nM; in [4] it was 356 nM; in [5], 69 nM; in [6], 508 nM. Also, the 50% inhibitory concentration (IC50) in assay [7] was 7140 nM; in assay [8] it was 24 nM; in assay [9], 341 nM; in [10], under 2 nM; in [11], 68 nM.

In the case of `O=S1(=O)CCC2(CCCN(c3nc(OC[C@@]45CCCN4C[C@H](F)C5)nc4c3CCN(c3cc(O)cc5ccc(F)c(Cl)c35)C4)C2)N1` (stereo partly drawn) [Example 632, 7-(7-(8-chloro-7-fluoro-3-hydroxynaphthalen-1-yl)-2-(((2R,7aS)-2-fluorotetrahydro-1H-pyrrolizin-7a(5H)-yl)methoxy)-5,6,7,8-tetrahydropyrido[3,4-d]pyrimidin-4-yl)-2-thia-1,7-diazaspiro[4.5]decane 2,2-dioxide], the concentration for half-maximal inhibition (IC50) in [1] was under 2 nM; in assay [2], under 2 nM; in assay [3], 4.1 nM; in assay [4], 32 nM; in assay [5], 12 nM; in [6] it was 55 nM. Further, the IC50 in assay [7] is 716 nM; in assay [8] it was 6 nM; in [9] it was 21 nM; in [10], under 2 nM; in assay [11] it was 19 nM.

Consider `CCc1c(F)ccc2cc(O)cc(N3CCc4c(nc(OC[C@@]56CCCN5C[C@H](F)C6)nc4N4CCCn5ncc(C(N)=O)c5C4)C3)c12` [Example 634, 5-(7-(8-ethyl-7-fluoro-3-hydroxynaphthalen-1-yl)-2-(((2R,7aS)-2-fluorotetrahydro-1H-pyrrolizin-7a(5H)-yl)methoxy)-5,6,7,8-tetrahydropyrido[3,4-d]pyrimidin-4-yl)-5,6,7,8-tetrahydro-4H-pyrazolo[1,5-a][1,4]diazepine-3-carboxamide], for which the IC50 in assay [1] was under 2 nM; in assay [2], under 2 nM; in assay [3] it was 103 nM; in [4] it was 284 nM; in [5], 102 nM; in [6], 1420 nM. The IC50 was over 10000 nM in assay [7]; 45 nM in [8]; 585 nM in assay [9]; under 2 nM in assay [10]; 346 nM in assay [11].

As to `CCc1c(F)ccc2cc(O)cc(N3CCc4c(nc(OC[C@@]56CCCN5C[C@H](F)C6)nc4N4CCCn5ncc(C(=O)NC)c5C4)C3)c12` [Example 635, 5-(7-(8-ethyl-7-fluoro-3-hydroxynaphthalen-1-yl)-2-(((2R,7aS)-2-fluorotetrahydro-1H-pyrrolizin-7a(5H)-yl)methoxy)-5,6,7,8-tetrahydropyrido[3,4-d]pyrimidin-4-yl)-N-methyl-5,6,7,8-tetrahydro-4H-pyrazolo[1,5-a][1,4]diazepine-3-carboxamide], the IC50 was under 2 nM in assay [1]; under 2 nM in assay [2]; 158 nM in [3]; 230 nM in [4]; 134 nM in assay [5]; 1320 nM in [6]. In addition, the IC50 in [7] was over 10000 nM; in assay [8], 87 nM; in [9], 567 nM; in assay [10] it was under 2 nM; in assay [11], 609 nM.

Take `CCc1c(F)ccc2cc(O)cc(N3CCc4c(nc(OC[C@@]56CCCN5C[C@H](F)C6)nc4N4CCCn5ncc(C(=O)N(C)C)c5C4)C3)c12` [Example 636, 5-(7-(8-ethyl-7-fluoro-3-hydroxynaphthalen-1-yl)-2-(((2R,7aS)-2-fluorotetrahydro-1H-pyrrolizin-7a(5H)-yl)methoxy)-5,6,7,8-tetrahydropyrido[3,4-d]pyrimidin-4-yl)-N,N-dimethyl-5,6,7,8-tetrahydro-4H-pyrazolo[1,5-a][1,4]diazepine-3-carboxamide]: the IC50 was under 2 nM in assay [1]; under 2 nM in [2]; 81.1 nM in assay [3]; 153 nM in assay [4]; 29 nM in assay [5]; 1110 nM in assay [6]. Also, the IC50 in assay [7] is over 10000 nM; in assay [8], 45 nM; in assay [9], 418 nM; in [10], under 2 nM; in [11], 200 nM.

On to `CCc1c(F)ccc2cc(O)cc(N3CCc4c(nc(OC[C@@]56CCCN5C[C@H](F)C6)nc4N4CCCn5ncc(C)c5C4)C3)c12` [Example 641, 5-ethyl-6-fluoro-4-(2-(((2R,7aS)-2-fluorotetrahydro-1H-pyrrolizin-7a(5H)-yl)methoxy)-4-(3-methyl-7,8-dihydro-4H-pyrazolo[1,5-a][1,4]diazepin-5(6H)-yl)-5,8-dihydropyrido[3,4-d]pyrimidin-7(6H)-yl)naphthalen-2-ol], for which the IC50 in [1] is 2 nM; in assay [2], under 2 nM; in assay [3], 303 nM; in assay [4], 216 nM; in [5], 179 nM; in [6], 1010 nM. The IC50 is over 10000 nM in [7]; 109 nM in assay [8]; 481 nM in assay [9]; under 2 nM in assay [10]; 225 nM in [11].

Consider `CCc1c(F)ccc2cc(O)cc(N3CCc4c(nc(OC[C@@]56CCCN5C[C@H](F)C6)nc4N4CCCn5ncc(Cl)c5C4)C3)c12` [Example 642, 4-(4-(3-chloro-7,8-dihydro-4H-pyrazolo[1,5-a][1,4]diazepin-5(6H)-yl)-2-(((2R,7aS)-2-fluorotetrahydro-1H-pyrrolizin-7a(5H)-yl)methoxy)-5,8-dihydropyrido[3,4-d]pyrimidin-7(6H)-yl)-5-ethyl-6-fluoronaphthalen-2-ol], for which the IC50 in assay [1] is under 2 nM; in [2] it was under 2 nM; in assay [3], 120 nM; in [4], 200 nM; in assay [5], 59 nM; in [6], 738 nM. The IC50 in assay [7] is over 10000 nM; in assay [8], 105 nM; in [9], 325 nM; in [10], 3 nM; in assay [11], 145 nM.

Turning to `CCc1c(F)ccc2cc(O)cc(N3CCc4c(nc(OC[C@@]56CCCN5C[C@H](F)C6)nc4N4CCCC5(CCS(=O)(=O)N5)C4)C3)c12` (stereo partly drawn) [Example 643, 7-(7-(8-ethyl-7-fluoro-3-hydroxynaphthalen-1-yl)-2-(((2R,7aS)-2-fluorotetrahydro-1H-pyrrolizin-7a(5H)-yl)methoxy)-5,6,7,8-tetrahydropyrido[3,4-d]pyrimidin-4-yl)-2-thia-1,7-diazaspiro[4.5]decane 2,2-dioxide], the IC50 in [1] was under 2 nM; in [2], under 2 nM; in [3] it was 39.9 nM; in assay [4], 211 nM; in assay [5], 27 nM; in assay [6], 312 nM. Also, the concentration for half-maximal inhibition (IC50) is 4880 nM in [7]; 30 nM in assay [8]; 67 nM in [9]; under 2 nM in assay [10]; 266 nM in assay [11].

With `CCc1c(F)ccc2cc(O)cc(N3CCc4c(nc(OC[C@@]56CCCN5C[C@H](F)C6)nc4N4CCCN(c5nccs5)CC4)C3)c12` [Example 648, 5-ethyl-6-fluoro-4-(2-(((2R,7aS)-2-fluorotetrahydro-1H-pyrrolizin-7a(5H)-yl)methoxy)-4-(4-(thiazol-2-yl)-1,4-diazepan-1-yl)-5,8-dihydropyrido[3,4-d]pyrimidin-7(6H)-yl)naphthalen-2-ol], the IC50 in [1] worked out at 7 nM; in [2], 17 nM; in assay [3], 101 nM; in assay [4], 2330 nM; in [5], 1940 nM; in assay [6], 570 nM. For the same molecule, the IC50 in [7] is over 10000 nM; in assay [8], 710 nM; in assay [9], 184 nM; in assay [10], 4 nM; in [11], 1130 nM.
